Earlier results on two compounds are cited in patent US20210315249A1, “Cannabis-Infused Product with Controlled Cannabinoid Profile User Experience” (HEXO […]., priority 2018, published 2021).

The conditions of data set [1]: dogs; emulsion droplet size 119 nm or 52 nm.
For data set [2] the following is noted: rats; solution in MCT oil or emulsion with droplet size 160 nm or 710 nm.

Where two headings read alike, the source gives them in different places.

For the compound `CCCCN(CCCC)CCC(O)c1cc2c(Cl)cc(Cl)cc2c2cc(C(F)(F)F)ccc12` (centres unmarked) [halofantrine], the bioavailability entry in data set [1] is “comparable bioavailability”.
`COc1nc(C(Cl)(Cl)Cl)c(Cl)c(OC)c1Cl` [penclomedine]: the bioavailability result in data set [2] is “comparable bioavailability”.
